Measured values from patent publication US9266891B2, “Substituted [1,2,4]triazolo[4,3-A]pyrazines that are BRD4 inhibitors” (Boehringer Ingelheim International GmbH, priority 2012, dated 2016).
pIC50: −log10 of the molar value.

Target: BRD4-BD1 (Homo sapiens (Human), UniProt O60885)
Assay: BRD4-H4 tetraacetylated peptide inhibition AlphaScreen
Format: binding
Conditions: GST-BRD4-BD1 (aa 44-168) with biotinylated Acetyl-Histone H4 (Lys5, 8, 12, 16) peptide
Description: Biological Methods BRD4-H4 Tetraacetylated Peptide Inhibition AlphaScreen
Compounds are diluted in serial dilution 1:5 in assay buffer from 10 mM stock in DMSO (100 μM start concentration) in white OptiPlate-384 (PerkinElmer). A mix consisting of 15 nM GST-BRD4-BD1 protein (aa 44-168) or 150 nM GST-BRD4-BD2 (aa 333-460) and 15 nM biotinylated Acetyl-Histone H4 (Lys5, 8, 12, 16) peptide is prepared in assay buffer (50 mM HEPES pH=7.4; 25 mM NaCl; 0.05% Tween 20; 0.1% bovine serum albumin (BSA); 10 mM dithiothreitol (DTT)). 6 μl of the mix is added to the compound dilutions. Subsequently, 6 μl of premixed AlphaLISA Glutathione Acceptor Beads and AlphaScreen Streptavidin Donor Beads from PerkinElmer (in assay buffer at a concentration of 10 μg/ml each) are added and the samples are incubated for 30 min at RT in the dark (shaking 300 rpm). Afterwards, the signal is measured in a PerkinElmer Envision HTS Multilabel Reader using the AlphaScreen protocol from PerkinElmer. Each plate contains negative controls where biotinylated Acetyl-Histone H4 peptide and GST-BRD4-BD1 or GST-BRD4-BD2 are left out and replaced by assay buffer. Negative control values are entered as low basis value when using the software GraphPad Prism for calculations. Furthermore, a positive control (probe molecule JQ1+ with protein/peptide mix) is pipetted. Determination of IC50 values are carried out using GraphPad Prism 3.03 software (or updates thereof).

| Structure (SMILES) | pIC50 |
| --- | --- |
| CNc1nc(-c2cn(C)nc2Cc2ccccc2)cn2c(C)nnc12 [Example I-1, 6-(3-benzyl-1-methyl-1H-pyrazol-4-yl)-N,3-dimethyl-[1,2,4]triazolo[4,3-a]pyrazin-8-amine] | 7.21 |
| CNc1nc(-c2cnn(C)c2Oc2ccccc2)cn2c(C)nnc12 [Example I-2] | 7.39 |
| Cc1nc(-c2cnn(C)c2Oc2ccccc2)cn2c(C)nnc12 [Example I-3] | 7.39 |
| CNc1nc(-c2nn(C)c(C)c2Cc2ccccc2)cn2c(C)nnc12 [Example I-4] | 7.74 |
| CNc1nc(-c2nc(-c3ccccc3)c(C)n2Cc2ccccc2)cn2c(C)nnc12 [II-1, 6-(1-benzyl-5-methyl-4-phenyl-1H-imidazol-2-yl)-N,3-dimethyl-[1,2,4]triazolo[4,3-a]pyrazin-8-amine] | 8.40 |
| CNc1nc(-c2nc(C)c(C)n2Cc2ccccc2)cn2c(C)nnc12 [II-2] | 7.82 |
| Cc1nc(-c2cn3c(C)nnc3c(C)n2)n(Cc2ccccc2)c1C [II-3] | 7.51 |
| Cc1nnc2c(NC3CCN(C)CC3)nc(-c3nc4ccccc4n3Cc3ccccc3)cn12 [III-1, N-[6-(1-benzyl-1H-1,3-benzodiazol-2-yl)-3-methyl-[1,2,4]triazolo[4,3-a]pyrazin-8-yl]-1-methylpiperidin-4-amine] | 8.15 |
| COCCN1CCC(Nc2nc(-c3nc4ccccc4n3[C@@H](C)c3ccccc3)cn3c(C)nnc23)CC1 [III-2] | 7.39 |
| COCCN1CCC(Nc2nc(-c3nc4ccccc4n3[C@H](C)c3ccccc3)cn3c(C)nnc23)CC1 [III-3] | 7.31 |
| COCCN1CCC(Nc2nc(-c3nc4ccccc4n3Cc3ccccc3)cn3c(C)nnc23)CC1 [III-4] | 8.10 |
| COCCN1CCC(Nc2nc(-c3nc4ccccc4n3Cc3ccc(F)cc3)cn3c(C)nnc23)CC1 [III-5] | 8.05 |
| COCCN1CCC(Nc2nc(-c3nc4ccccc4n3Cc3ccc(F)c(F)c3)cn3c(C)nnc23)CC1 [III-6] | 8.05 |
| CNc1nc(-c2nc3ccccc3n2Cc2ccccc2)cn2c(C)nnc12 [III-7] | 7.66 |
| CNc1nc(-c2nc3cnc(N4CCN(C)CC4)cc3n2Cc2ccccc2)cn2c(C)nnc12 [III-8] | 8.05 |
| Cc1nc(-c2nc3cnc(N4CCN(C)CC4)cc3n2Cc2ccccc2)cn2c(C)nnc12 [III-9] | 7.85 |
| CNc1nc(-c2nc3cccnc3n2Cc2ccccc2)cn2c(C)nnc12 [III-10] | 7.74 |
| CNc1nc(-c2nc3cnc(N4CCN(C)CC4)nc3n2Cc2ccccc2)cn2c(C)nnc12 [III-11] | 8.05 |
| COCCN1CCC(Nc2nc(-c3nc4ccc(N5CCOCC5)cc4n3Cc3ccccc3)cn3c(C)nnc23)CC1 [III-12] | 8.15 |
| CNc1nc(-c2nc3ccc(N4CCN(C)CC4)cc3n2Cc2ccccc2)cn2c(C)nnc12 [III-13] | 8.05 |

| Structure (SMILES) | pIC50 |
| --- | --- |
| CNc1nc(-c2nc3ccc(N4CCOCC4)cc3n2Cc2ccccc2)cn2c(C)nnc12 [III-14] | 8.00 |
| COCCN1CCC(Nc2nc(-c3nc4cc(C5=NNC(=O)CC5C)ccc4n3Cc3ccccc3)cn3c(C)nnc23)CC1 (stereo not drawn) [III-15] | 8.52 |
| CNc1nc(-c2nc3cc(C4=NNC(=O)CC4C)ccc3n2Cc2ccccc2)cn2c(C)nnc12 (stereo not drawn) [III-16] | 8.30 |
| CCNc1nc(-c2nc3cnc(N4CCN(C)CC4)cc3n2Cc2ccccc2)cn2c(C)nnc12 [III-17] | 7.77 |
| Cc1nnc2c(NC(C)C)nc(-c3nc4cnc(N5CCN(C)CC5)cc4n3Cc3ccccc3)cn12 [III-18] | 7.59 |
| Cc1nnc2c(NC(C)C)nc(-c3nc4cnc(N5CCOC[C@@H]5C)cc4n3[C@@H](C)c3ccccc3)cn12 [III-19] | 7.42 |
| CNc1nc(-c2nc3cnc(N4CCN(C)CC4)cc3n2Cc2ccccn2)cn2c(C)nnc12 [III-20] | 7.89 |
| CNc1nc(-c2nc3ccc(N4CCN(C)CC4)cc3n2Cc2ccccn2)cn2c(C)nnc12 [III-21] | 8.10 |
| CNc1nc(-c2nc3cnc(N4CCOCC4)cc3n2Cc2ccccn2)cn2c(C)nnc12 [III-22] | 8.52 |
| CNc1nc(-c2nc3ccc(N4CCOCC4)cc3n2Cc2ccccn2)cn2c(C)nnc12 [III-23] | 8.52 |
| Cc1nnc2c(N[C@@H]3CCOC3)nc(-c3nc4cnc(N5CCOCC5)cc4n3Cc3ccccn3)cn12 [III-24] | 7.70 |
| CNc1nc(-c2nc3cc(C4CCOCC4)ccc3n2Cc2ccccn2)cn2c(C)nnc12 [III-25] | 7.96 |
| Cc1nnc2c(NC(C)C)nc(-c3nc4ccc(N5CCOCC5)cc4n3Cc3ccccn3)cn12 [III-26] | 8.30 |
| Cc1nnc2c(NC(C)C)nc(-c3nc4cnc(N5CCOCC5)cc4n3Cc3ccccn3)cn12 [III-27] | 8.00 |
| Cc1nnc2c(NC(C)C)nc(-c3nc4cnc(N5CCOCC5)cc4n3Cc3ccc(F)cn3)cn12 [III-28] | 9.00 |
| Cc1nnc2c(NC(C)C)nc(-c3nc4cnc(N5CCOC[C@H]5C)cc4n3Cc3ccccn3)cn12 [III-29] | 8.05 |
| Cc1nnc2c(NC(C)C)nc(-c3nc4cnc(N5CCOC[C@@H]5C)cc4n3Cc3ccccn3)cn12 [III-30] | 8.05 |
| Cc1nnc2c(NC(C)C)nc(-c3nc4cnc(N(C)C)cc4n3Cc3ccccn3)cn12 [III-31] | 7.89 |
| Cc1nnc2c(NC(C)C)nc(-c3nc4ccc(N(C)C)cc4n3Cc3ccccn3)cn12 [III-32] | 8.15 |
| Cc1nnc2c(NC(C)C)nc(-c3nc4ccccc4n3Cc3ccccn3)cn12 [III-33] | 7.70 |

| Structure (SMILES) | pIC50 |
| --- | --- |
| COc1ccc2nc(-c3cn4c(C)nnc4c(NC(C)C)n3)n(Cc3ccccn3)c2c1 [III-34] | 7.35 |
| Cc1ccc2nc(-c3cn4c(C)nnc4c(NC(C)C)n3)n(Cc3ccccn3)c2c1 [III-35] | 7.82 |
| Cc1cc2c(cn1)nc(-c1cn3c(C)nnc3c(NC(C)C)n1)n2Cc1ccccn1 [III-36] | 7.55 |
| Cc1nnc2c(NC(C)C)nc(-c3nc4cnccc4n3Cc3ccccn3)cn12 [III-37] | 7.85 |
| Cc1cccc(Cn2c(-c3cn4c(C)nnc4c(NC(C)C)n3)nc3cnc(N4CCOCC4)cc32)n1 [III-38] | 7.77 |
| COc1cc2c(cn1)nc(-c1cn3c(C)nnc3c(NC(C)C)n1)n2Cc1ccccn1 [III-39] | 6.90 |
| Cc1nnc2c(NC(C)C)nc(-c3nc4cnc(C(C)C)cc4n3Cc3ccccn3)cn12 [III-40] | 7.74 |
| Cc1nnc2c(NC(C)C)nc(-c3nc4cnc(N5CCOC[C@@H]5C)cc4n3[C@@H](C)c3ccccn3)cn12 [III-41] | 7.13 |
| Cc1nnc2c(NC(C)C)nc(-c3nc4cnc(C(C)C)cc4n3[C@@H](C)c3ccccn3)cn12 [III-42] | 7.18 |
| Cc1nnc2c(NC(C)C)nc(-c3nc4cnc(C5CCOCC5)cc4n3Cc3ccccn3)cn12 [III-43] | 7.47 |
| Cc1nnc2c(NC(C)C)nc(-c3nc4ccc(C5CCOCC5)cc4n3Cc3ccccn3)cn12 [III-44] | 7.49 |
| Cc1nnc2c(NC(C)C)nc(-c3nc4ccc(C5CCOCC5)cc4n3[C@@H](C)c3ccccn3)cn12 [III-45] | 7.16 |
| Cc1nnc2c(NC(C)C)nc(-c3nc4ccc(C(C)C)cc4n3[C@@H](C)c3ccccn3)cn12 [III-46] | 6.61 |
| CNc1nc(-c2nc3cnc(N4CCN(C)CC4)cc3n2Cc2cccnc2)cn2c(C)nnc12 [III-47] | 7.92 |
| CNc1nc(-c2nc3ccc(N4CCN(C)CC4)cc3n2Cc2cccnc2)cn2c(C)nnc12 [III-48] | 8.10 |
| CNc1nc(-c2nc3cnc(N4CCOCC4)cc3n2Cc2cccnc2)cn2c(C)nnc12 [III-49] | 8.40 |
| CNc1nc(-c2nc3ccc(N4CCOCC4)cc3n2Cc2cccnc2)cn2c(C)nnc12 [III-50] | 8.30 |
| Cc1nnc2c(N[C@@H]3CCOC3)nc(-c3nc4cnc(N5CCOCC5)cc4n3Cc3cccnc3)cn12 [III-51] | 7.89 |
| Cc1cc2c(cn1)nc(-c1cn3c(C)nnc3c(N[C@@H]3CCOC3)n1)n2Cc1cccnc1 [III-52] | 7.51 |
| CNc1nc(-c2nc3cnc(N4CCN(C)CC4)cc3n2Cc2ccncc2)cn2c(C)nnc12 [III-53] | 7.92 |
